# Laboratory results reported in paper PMC5189922 (Journal of medicinal chemistry, 2016).
# Entries after “also recorded” stand apart in the source; their conditions may differ.
# Tests used:
# [1] = Accelerating rotarod performance assay
# [2] = Hot water; format: in vivo, mice; conditions: for antinociceptive effect in tail-flick assay: male B6-SJL mice, 10 s cutoff
# [3] = biological target: human κ-opioid receptor (Homo sapiens, UniProt P41145); format: cell-based
# [4] = Cumulative dose-response tail-flick assay and tolerance evaluation; format: in vivo, mice; conditions: cumulative dosing, day 9 after daily 10 mg/kg s.c. on days 2–8 (tolerance)
# [5] = Conditioned place preference; conditions: male Sprague Dawley rats, vs vehicle
# [6] = tested on: human µ-opioid receptor β-arrestin-2; assay: MOR-mediated β-arrestin-2 recruitment; format: cell-based
# [7] = biological target: human µ-opioid receptor (Homo sapiens, UniProt P35372); format: cell-based
# Sequence of human µ-opioid receptor (P35372 whole entry): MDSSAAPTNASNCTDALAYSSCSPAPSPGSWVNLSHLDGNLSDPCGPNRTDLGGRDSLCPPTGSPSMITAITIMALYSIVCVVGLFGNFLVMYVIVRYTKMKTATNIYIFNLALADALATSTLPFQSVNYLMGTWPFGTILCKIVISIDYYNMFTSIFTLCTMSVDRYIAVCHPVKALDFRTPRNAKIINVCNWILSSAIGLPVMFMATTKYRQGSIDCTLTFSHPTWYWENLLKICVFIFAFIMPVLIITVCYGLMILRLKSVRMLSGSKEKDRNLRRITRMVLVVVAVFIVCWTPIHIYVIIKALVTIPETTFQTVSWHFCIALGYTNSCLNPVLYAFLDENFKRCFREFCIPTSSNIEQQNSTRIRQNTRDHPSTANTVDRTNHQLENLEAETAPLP
# Sequence of human κ-opioid receptor (P41145 whole entry): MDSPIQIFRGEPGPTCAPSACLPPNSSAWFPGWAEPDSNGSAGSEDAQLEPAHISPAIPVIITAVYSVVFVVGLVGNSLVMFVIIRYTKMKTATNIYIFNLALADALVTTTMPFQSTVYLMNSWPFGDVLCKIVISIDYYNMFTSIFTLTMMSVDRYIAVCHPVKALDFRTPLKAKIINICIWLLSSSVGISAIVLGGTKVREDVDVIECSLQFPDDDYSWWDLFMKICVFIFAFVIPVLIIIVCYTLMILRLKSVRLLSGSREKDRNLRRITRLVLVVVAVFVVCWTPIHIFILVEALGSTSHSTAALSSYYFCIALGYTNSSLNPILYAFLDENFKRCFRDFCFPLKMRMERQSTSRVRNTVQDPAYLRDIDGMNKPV
smiles,measurement,setting,value
"COC(=O)[C@@H]1C=C(OC(=O)c2ccccc2)C(=O)[C@H]2[C@@]1(C)CC[C@H]1C(=O)O[C@H](c3ccoc3)C[C@]21C [Compound 5, (2S,4aR, 6aR,7R,10aR,10bR)-Methyl 9-((benzoyl)oxy)-2-(furan-3-yl)-6a,10b-dimethyl-4,10-dioxo-2,4,4a,5,6,6a,7,10,10a,10b-decahydro-1H-benzo[f]isochromene-7-carboxylate]",motor coordination / sedation on rotarod,"[1]; 10 mg/kg i.p., 4 to 40 rpm over 300 s",slight sedation only at the 15 min time point
same,time of maximal antinociceptive effects,[2]; 10 mg/kg i.p.,30 min
same,antinociceptive effect in tail-flick assay,"[2]; 5 and 10 mg/kg i.p., vs vehicle",significant antinociceptive effects
same,antinociceptive effect after naloxone pre-treatment,[2]; naloxone 10 mg/kg s.c. 45 min pre-treatment,blocked
same,activity at KORs (in words),[3],no activity
same,EC50 antinociception day 9,[4],7.9 mg/kg
same,conditioned place preference (CPP score),[5]; 5 mg/kg and 10 mg/kg i.p.,CPP score similar to the vehicle control; also recorded: Neither 5 (5 and 10 mg/kg) nor 2 (5 mg/kg) were significantly different to vehicle
same,Emax,[6]; read-out: % Efficacy ± SEM,96 ± 3%
CC(=O)O[C@@H]1C=C(OC(=O)c2cccc(F)c2)C(=O)[C@H]2[C@@]1(C)CC[C@H]1C(=O)O[C@H](c3ccoc3)C[C@]21C [Compound 9b],Selectivity κ/µ,[7],>2 000
"CC(=O)O[C@@H]1C[C@H](NC(=O)c2ccccc2)C(=O)[C@H]2[C@@]1(C)CC[C@H]1C(=O)O[C@H](c3ccoc3)C[C@]21C [Compound 3, herkamide, reference compound]",Selectivity κ/µ,[7],>3 000
COC(=O)[C@@H]1C[C@@H](OC(=O)c2ccccc2)C(=O)[C@H]2[C@@]1(C)CC[C@H]1C(=O)O[C@H](c3ccoc3)C[C@]21C [Compound 4],activity at KORs (in words),[3],complete loss of activity
same,activity at MORs (in words),[7],complete loss of activity
"COC(=O)[C@@H]1C=C(O)C(=O)[C@H]2[C@@]1(C)CC[C@H]1C(=O)O[C@H](c3ccoc3)C[C@]21C [Compound 7a, Methyl-(2S,4aR,6aR/S,7R,10aR,10bR)-2-(furan-3-yl)-9-hydroxy-6a,10b-dimethyl-4,10-dioxo-2,4,4a,5,6,6a,7,10,10a,10b-decahydro-1H-;benzo[f]isochromene-7-carboxylate]",activity at KORs (in words),[3],active
"COC(=O)[C@@H]1C[C@H](OC(=O)c2ccccc2)C(=O)[C@H]2[C@@]1(C)CC[C@H]1C(=O)O[C@H](c3ccoc3)C[C@]21C [Compound 2, herkinorin, reference compound]",motor coordination on rotarod,"[1]; dose not given, data not shown",no observable effect on motor co-ordination
same,antinociceptive effect in tail-flick assay,"[2]; 1, 5, and 10 mg/kg i.p.",no significant antinociceptive effects
same,activity at KORs (in words),[3],partial agonist
same,conditioned place preference (CPP score),[5]; 5 mg/kg,Neither 5 (5 and 10 mg/kg) nor 2 (5 mg/kg) were significantly different to vehicle
same,EC50,[6]; read-out: β-arrestin-2 recruitment EC50,> 3000 nM
"COC(=O)[C@@H]1CC(=O)C(O)=C2[C@@]1(C)CC[C@H]1C(=O)O[C@H](c3ccoc3)C[C@]21C [Compound 7b, Methyl-(2S,4aR,6aS,7R,10bS)-2-(furan-3-yl)-10-hydroxy-6a,10b-dimethyl-4,9-dioxo-1,4,4a,5,6,6a,7,8,9,10b-decahydro-2H-benzo[f]isochromene-7-carboxylate]",activity at KORs (in words),[3],completely inactive
